Measurements from ChEMBL document CHEMBL3885861, “Open TG-GATES”.

Organism: Rattus norvegicus
Assay: Open TG-GATES - Regimen: Single
Type: toxicity, organism-based, Sprague-Dawley
Design: regimen Single, gender Male, age 6 weeks
Details: in vivo, po, 0 mg/kg, route gavage, dose level Control; for APTT / Bas / Eos / Fbg / Hb / Ht / Lym / MCH / MCHC / MCV / Mono / Neu / PT / Plat / RBC / Ret / WBC: tissue Blood; for KIDNEY_L / KIDNEY_R / KIDNEY_TOTAL: tissue Kidney; for LIVER: tissue Liver; for A/G / ALP / ALT / AST / BUN / CRE / Ca / Cl / DBIL / GLC / IP / K / LDH / Na / PL / RALB / TBIL / TC / TG / TP / gamma-GTP: tissue Plasma

## CN/C(=N/CCSCc1nc[nH]c1C)NC#N [CIMETIDINE]
3 h
  TERMINAL_BW: 213.9 g
  APTT: 18.4 s
  Bas: 0%
  Eos: 1%
  Fbg: 217.6 mg/dL
  Hb: 12.7 g/dL
  Ht: 37.4%
  Lym: 75.4%
  MCH: 21.3 pg
  MCHC: 34%
  MCV: 62.5 fL
  Mono: 3.2%
  Neu: 19.2%
  PT: 12.6 s
  Plat: 139.7 x10_4/uL
  RBC: 598.4 x10_4/ul
  Ret: 7.9%
  WBC: 95.7 x10_2/uL
  KIDNEY_L: 1 g
  KIDNEY_R: 1 g
  KIDNEY_TOTAL: 2 g
  LIVER: 10.1 g
  A/G: 1.7
  ALP: 1080.4 IU/L
  ALT: 37.4 IU/L
  AST: 71.2 IU/L
  BUN: 12.4 mg/dL
  CRE: 0.3 mg/dL
  Ca: 10.8 mg/dL
  Cl: 102.6 meq/L
  DBIL: 0.072 mg/dL
  GLC: 189 mg/dL
  IP: 8.8 mg/dL
  K: 3.7 meq/L
  LDH: 134.2 IU/L
  Na: 140.8 meq/L
  PL: 147.6 mg/dL
  RALB: 3.4 g/dL
  TBIL: 0.1 mg/dL
  TC: 77.2 mg/dL
  TG: 65 mg/dL
  TP: 5.4 g/dL
  gamma-GTP: 1.4 IU/L
6 h
  TERMINAL_BW: 211.8 g
  APTT: 19.8 s
  Bas: 0%
  Eos: 1%
  Fbg: 219.2 mg/dL
  Hb: 13.2 g/dL
  Ht: 37.8%
  Lym: 75.6%
  MCH: 21.6 pg
  MCHC: 34.7%
  MCV: 62.2 fL
  Mono: 3.4%
  Neu: 18.8%
  PT: 12.8 s
  Plat: 127.2 x10_4/uL
  RBC: 607.6 x10_4/ul
  Ret: 8%
  WBC: 107.6 x10_2/uL
  KIDNEY_L: 1 g
  KIDNEY_R: 1 g
  KIDNEY_TOTAL: 1.9 g
  LIVER: 9.5 g
  A/G: 1.5
  ALP: 902.6 IU/L
  ALT: 38 IU/L
  AST: 70.2 IU/L
  BUN: 10.2 mg/dL
  CRE: 0.4 mg/dL
  Ca: 10.7 mg/dL
  Cl: 101.6 meq/L
  DBIL: 0.074 mg/dL
  GLC: 195.4 mg/dL
  IP: 9.7 mg/dL
  K: 3.8 meq/L
  LDH: 161.6 IU/L
  Na: 140.6 meq/L
  PL: 151.2 mg/dL
  RALB: 3.3 g/dL
  TBIL: 0.1 mg/dL
  TC: 81.8 mg/dL
  TG: 64.4 mg/dL
  TP: 5.5 g/dL
  gamma-GTP: 1.4 IU/L
9 h
  TERMINAL_BW: 206.6 g
  APTT: 17.6 s
  Bas: 0%
  Eos: 1%
  Fbg: 222.6 mg/dL
  Hb: 13.1 g/dL
  Ht: 37.9%
  Lym: 75.6%
  MCH: 21.5 pg
  MCHC: 34.6%
  MCV: 62 fL
  Mono: 3%
  Neu: 19.2%
  PT: 12.8 s
  Plat: 128 x10_4/uL
  RBC: 612 x10_4/ul
  Ret: 7.6%
  WBC: 93 x10_2/uL
  KIDNEY_L: 0.9 g
  KIDNEY_R: 0.9 g
  KIDNEY_TOTAL: 1.8 g
  LIVER: 8.7 g
  A/G: 1.6
  ALP: 842 IU/L
  ALT: 30 IU/L
  AST: 66.2 IU/L
  BUN: 12.6 mg/dL
  CRE: 0.3 mg/dL
  Ca: 10.5 mg/dL
  Cl: 102.2 meq/L
  DBIL: 0.074 mg/dL
  GLC: 189.2 mg/dL
  IP: 10 mg/dL
  K: 3.8 meq/L
  LDH: 120.4 IU/L
  Na: 140.8 meq/L
  PL: 139 mg/dL
  RALB: 3.3 g/dL
  TBIL: 0.1 mg/dL
  TC: 77.4 mg/dL
  TG: 47.8 mg/dL
  TP: 5.4 g/dL
  gamma-GTP: 1.4 IU/L
24 h
  TERMINAL_BW: 224.9 g
  APTT: 18.8 s
  Bas: 0.2%
  Eos: 0.8%
  Fbg: 218.6 mg/dL
  Hb: 13.5 g/dL
  Ht: 40%
  Lym: 81.4%
  MCH: 21.6 pg
  MCHC: 33.8%
  MCV: 63.8 fL
  Mono: 3%
  Neu: 13.2%
  PT: 12.1 s
  Plat: 130.4 x10_4/uL
  RBC: 627.6 x10_4/ul
  Ret: 7.2%
  WBC: 98.2 x10_2/uL
  KIDNEY_L: 1 g
  KIDNEY_R: 1 g
  KIDNEY_TOTAL: 2 g
  LIVER: 11 g
  A/G: 1.6
  ALP: 959.8 IU/L
  ALT: 36.8 IU/L
  AST: 64 IU/L
  BUN: 15.6 mg/dL
  CRE: 0.4 mg/dL
  Ca: 10.9 mg/dL
  Cl: 101.6 meq/L
  DBIL: 0.1 mg/dL
  GLC: 223.8 mg/dL
  IP: 7.7 mg/dL
  K: 4 meq/L
  LDH: 147.6 IU/L
  Na: 140.2 meq/L
  PL: 158.6 mg/dL
  RALB: 3.5 g/dL
  TBIL: 0.2 mg/dL
  TC: 79.8 mg/dL
  TG: 118.8 mg/dL
  TP: 5.6 g/dL
  gamma-GTP: 1.8 IU/L
